In patent US11090410B2 (priority 2011, dated 2021):
Entries after “also recorded” stand apart in the source; their conditions may differ. Where two headings read alike, the source gives them in different places.

System: acetylcholine receptor clustering in C2C12 mouse myoblast cell line
Format: cell-based
Conditions: for acetylcholine receptor clustering behavior: C2C12 cells on fibrin hydrogels, 5 days of treatment or beyond

Substance: beads covalently linked to agrin: polystyrene microparticles with agrin linked to the surface using EDAC/sulfo-NHS covalent crosslinking chemistry
- acetylcholine receptor clustering behavior: induction of clustering behavior; also recorded: Clustering behavior was verified at areas of contact
- acetylcholine receptor clustering behavior (listed as agrin-delivering microparticles): formation of AChR clusters
- agrin delivery over longer time periods (e.g., 5 or more days): enabled agrin delivery over longer time periods
